Tested on: subjects with Age-Associated Memory Impairment
Assay: Safety and tolerability (adverse events), 6-week AAMI study
Format: in vivo, human
Method: Ninety-four subjects were randomized into one of six groups: 1 g E-EPA daily (n=23), 2 g E-EPA daily (n=24), 4 g E-EPA daily (n=24), 1 g placebo daily (n=7), 2 g placebo daily (n=8), and 4 g placebo daily (n=8).
All randomized subjects that received at least 1 dose of study medication were included in the Safety Population.
Safety evaluations were based on the safety population. Safety and tolerability were assessed in terms of AEs, vital signs, 12-lead ECG, clinical laboratory data, medical history, and study drug compliance. Safety and tolerability data were presented by treatment group.

CC/C=C\C/C=C\C/C=C\C/C=C\C/C=C\CCCC(=O)OCC [AMR101, ethyl eicosapentaenoate]
nausea Probably Related to the study drug (1 g): One | nausea Possibly Related to the study drug, subjects (1 g cohort): two | nausea Possibly Related to the study drug, subjects (2 g cohort): one | SAE reported (2 g treatment group): One | subjects discontinued due to TEAEs (2 g treatment group): 2 subjects | Serious Adverse Event (worsening epigastric chest pain), relation to study drug (2 g, one subject): unrelated to the study drug | diarrhea Probably Related to the study drug (4 g): Another subject | nausea Possibly Related to the study drug, subjects (4 g cohort): two | TEAEs Definitely Related to the study drug (all groups): No TEAEs were Definitely Related | deaths during the study (all groups): no deaths | treatment emergent AEs (TEAEs) reported (ethyl-EPA treatment groups (1 g, 2 g, 4 g), placebo groups 34 events): 105 events
